Results published in US10952433B2, “Solutions for enhancing the effectiveness of insecticides and fungicides on living plants and related methods” (priority 2015, dated 2021).
Like-named read-outs stand apart in the source and are kept apart here.

Legend:
[1] = test system: lepidopteran larvae: cabbage loopers (Trichoplusia ni) and beet armyworms (Spodoptera exigua); format: in vivo; settings: leaf discs
Text: A second series of tests involved romaine lettuce discs approximately ⅝ inch in diameter. (L. sativa). They were dipped in the treatment solution one second per disc. This test involved the 5/5 configuration, i.e., 5 treated and 5 untreated. The infestation involved […] lepidopteran larvae at the 3rd to 4th instar development per container: four cabbage loopers (Trichoplusia ni), and four beet armyworms (Spodoptera exigua) were employed. The test containers were placed in a dark humidity cabinet at 15° C. and 80% relative humidity. Visual evaluations of the average percent damage were taken at 24, 48 and 72 hours after the initiation of infestation. Damage was evaluated in 5% increments based on total disc area.
In the tests reported in Table 8 pages 29-32), romaine lettuce leaf discs ⅝″ in diameter (L. sativa) were dipped in the treatment solution for about one second per disc. Infestation was provided by eight lepidopteran larvae at the 3rd to 4th instar development per container. Four cabbage loopers (Trichoplusia ni) and four beet armyworms (Spodoptera exigua) were employed in infestation. The containers were placed in a dark humidity cabinet at 15° C. and 80% relative humidity. Visual observations of the average percent damage was taken at 24, 48 and 72 hours after infestation. Damage evaluation was by 5% increments over the total disc area.
In the tests results provided in Table 8, the identity and concentrations of the insecticide was identical to the tests results reported in Table 7. The concentration of 200:1 was employed for the no amino oxide, no buffer and buffered amine oxide system. This series of tests, however, reported how the percent damage changed with time at the respective 24, 48 and 72 hour intervals.

[2] = test system: lepidopteran larvae: cabbage loopers (Trichoplusia ni) and beet armyworms (Spodoptera exigua); format: in vivo; settings: plants
Procedure: In a first group of tests, the results of which are shown in Table 7 (pages 22-24), romaine lettuce plants two to three inches in height were exposed to 10 milliliters of solution applied to each plant using a low volume trigger spray. With respect to containers 0-7, ten plants were employed per container, nine were treated and one was an internal control. In containers M-H, ten plants per container were used, five were treated and 5 were internal controls. Each container was infested with 30 lepidopteran larvae between the 5th and 6th instar development. Fifteen cabbage loopers (Trichoplusia ni) and 15 beet armyworms (Spodoptera exigua) were used to infest the romaine lettuce plants. Visual evaluations for the average percentage total surface area damage were taken 24 hours after infestation. Percentage damage was evaluated by 5% increments for total damage across all plant leaves.
As indicated in the first column of Table 7, in some tests, no insecticide was employed and there were two controls; a no water control and a no dye control. A wide variety of insecticides selected from the following group were tested: Chlorantranilopril, Acephate, Methoxyfenozide, Spinosad, Permethrin, and Indoxacarb. The product concentration is shown in PPM in column 2. Column 3 is divided into two subunits, the first being CO3 and the second, PO4. In all instances in columns 3, 4 and 5 and their sub-columns, the concentrations used were 200:1. The fourth column employed amine oxide, but no buffer. […] Two sub-columns each are represented for CO3 and PO4. The final column is a reading of the Percent Lepidopteran Damage to the romaine lettuce plants after 24 hours.
In addition to testing the buffered amine system of the present invention with the two amine oxides identified as CO3 and PO4 and their use with 12 carbon length and a mixture of 12 and 18 designated 1218 for comparative data purposes various differences were created in the testing. Some of the tests were performed with (a) no insecticide along with (b) no amine oxide for CO3 and PO4 and (c) with no buffer, but with amine oxide. Also, tests were run using no insecticide and no water control with no foliar application being made. Tests with no insecticide and no dye control employed foliar application of water only. The tests were conducted with all of the testing on the buffer alone, the amine oxide alone and the buffered amine oxide system of the present invention in the concentration of 200:1.

[3] = insecticide + CO3 buffer 200:1, no amine oxide, PPM: Chlorantranilopril 60, Acephate 70, Methoxyfenozide 100, Spinosad 30, Permethrin 10, Indoxacarb 50
[4] = insecticide + PO4 buffer 200:1, no amine oxide, PPM: Chlorantranilopril 60, Acephate 70, Methoxyfenozide 100, Spinosad 30, Permethrin 10, Indoxacarb 50
[5] = insecticide + amine oxide 12, no buffer, 200:1, PPM: Chlorantranilopril 60, Acephate 70, Methoxyfenozide 100, Spinosad 30, Permethrin 10, Indoxacarb 50
[6] = insecticide + amine oxide 1218, no buffer, 200:1, PPM: Chlorantranilopril 60, Acephate 70, Methoxyfenozide 100, Spinosad 30, Permethrin 10, Indoxacarb 50
[7] = insecticide + buffered amine oxide system CO3, 12, 200:1, PPM: Chlorantranilopril 60, Acephate 70, Methoxyfenozide 100, Spinosad 30, Permethrin 10, Indoxacarb 50
[8] = insecticide + buffered amine oxide system CO3, 1218, 200:1, PPM: Chlorantranilopril 60, Acephate 70, Methoxyfenozide 100, Spinosad 30, Permethrin 10, Indoxacarb 50
[9] = insecticide + buffered amine oxide system PO4, 12, 200:1, PPM: Chlorantranilopril 60, Acephate 70, Methoxyfenozide 100, Spinosad 30, Permethrin 10, Indoxacarb 50
[10] = insecticide + buffered amine oxide system PO4, 1218, 200:1, PPM: Chlorantranilopril 60, Acephate 70, Methoxyfenozide 100, Spinosad 30, Permethrin 10, Indoxacarb 50
[11] = insecticide alone, highest, PPM: Chlorantranilopril 120, Acephate 140, Methoxyfenozide 200, Spinosad 60, Permethrin 20, Indoxacarb 100
[12] = insecticide alone, increased, PPM: Chlorantranilopril 90, Acephate 105, Methoxyfenozide 150, Spinosad 45, Permethrin 15, Indoxacarb 75
[13] = insecticide alone, PPM: Chlorantranilopril 60, Acephate 70, Methoxyfenozide 100, Spinosad 30, Permethrin 10, Indoxacarb 50

COP(=O)(NC(C)=O)SC (centres unmarked) [Acephate]
Percent Lepidopteran Damage to Romaine Lettuce 24 hr [1, 3]: 50.0% | Percent Lepidopteran Damage to Romaine Lettuce 24 hr [1, 4]: 38.5% | Percent Lepidopteran Damage to Romaine Lettuce 24 hr [1, 5]: 27.0% | Percent Lepidopteran Damage to Romaine Lettuce 24 hr [1, 6]: 22.0% | Percent Lepidopteran Damage to Romaine Lettuce 24 hr [1, 7]: 34.0% | Percent Lepidopteran Damage to Romaine Lettuce 24 hr [1, 8]: 29.5% | Percent Lepidopteran Damage to Romaine Lettuce 24 hr [1, 9]: 43.5% | Percent Lepidopteran Damage to Romaine Lettuce 24 hr [1, 10]: 18.0% | Percent Lepidopteran Damage to Romaine Lettuce 24 hr [1, 11]: 29.0% | Percent Lepidopteran Damage to Romaine Lettuce 24 hr [1, 12]: 27.0% | Percent Lepidopteran Damage to Romaine Lettuce 24 hr [1, 13]: 27.5% | Percent Lepidopteran Damage to Romaine Lettuce 48 hr [1, 3]: 57.5% | Percent Lepidopteran Damage to Romaine Lettuce 48 hr [1, 4]: 53.0% | Percent Lepidopteran Damage to Romaine Lettuce 48 hr [1, 5]: 49.5% | Percent Lepidopteran Damage to Romaine Lettuce 48 hr [1, 6]: 52.5% | Percent Lepidopteran Damage to Romaine Lettuce 48 hr [1, 7]: 63.5% | Percent Lepidopteran Damage to Romaine Lettuce 48 hr [1, 8]: 50.5% | Percent Lepidopteran Damage to Romaine Lettuce 48 hr [1, 9]: 55.5% | Percent Lepidopteran Damage to Romaine Lettuce 48 hr [1, 10]: 32.5% | Percent Lepidopteran Damage to Romaine Lettuce 48 hr [1, 11]: 35.5% | Percent Lepidopteran Damage to Romaine Lettuce 48 hr [1, 12]: 44.5% | Percent Lepidopteran Damage to Romaine Lettuce 48 hr [1, 13]: 47.5% | Percent Lepidopteran Damage to Romaine Lettuce 72 hr [1, 3]: 61.0% | Percent Lepidopteran Damage to Romaine Lettuce 72 hr [1, 4]: 68.5% | Percent Lepidopteran Damage to Romaine Lettuce 72 hr [1, 5]: 59.5% | Percent Lepidopteran Damage to Romaine Lettuce 72 hr [1, 6]: 67.0% | Percent Lepidopteran Damage to Romaine Lettuce 72 hr [1, 7]: 66.0% | Percent Lepidopteran Damage to Romaine Lettuce 72 hr [1, 8]: 63.5% | Percent Lepidopteran Damage to Romaine Lettuce 72 hr [1, 9]: 72.0% | Percent Lepidopteran Damage to Romaine Lettuce 72 hr [1, 10]: 51.0% | Percent Lepidopteran Damage to Romaine Lettuce 72 hr [1, 11]: 42.0% | Percent Lepidopteran Damage to Romaine Lettuce 72 hr [1, 12]: 47.0% | Percent Lepidopteran Damage to Romaine Lettuce 72 hr [1, 13]: 79.5% | Percent Lepidopteran Damage to Romaine Lettuce 24 hr [2, 3]: 31.0% | Percent Lepidopteran Damage to Romaine Lettuce 24 hr [2, 4]: 20.0% | Percent Lepidopteran Damage to Romaine Lettuce 24 hr [2, 5]: 36.0% | Percent Lepidopteran Damage to Romaine Lettuce 24 hr [2, 6]: 28.0% | Percent Lepidopteran Damage to Romaine Lettuce 24 hr [2, 7]: 11.5% | Percent Lepidopteran Damage to Romaine Lettuce 24 hr [2, 8]: 4.5% | Percent Lepidopteran Damage to Romaine Lettuce 24 hr [2, 9]: 7.5% | Percent Lepidopteran Damage to Romaine Lettuce 24 hr [2, 10]: 1.0% | Percent Lepidopteran Damage to Romaine Lettuce 24 hr [2, 11]: 13.0% | Percent Lepidopteran Damage to Romaine Lettuce 24 hr [2, 12]: 16.5% | Percent Lepidopteran Damage to Romaine Lettuce 24 hr [2, 13]: 22.7%
